PubChem BioAssay (NCI)
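Following 48 hours of exposure in 96-well plates, responses at five concentrations were used to interpolate endpoints linearly. TGI is the concentration that stops growth completely.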

Assays:
Assay in all cases: NCI-60 cell line screen, 48 h
U251 CNS = tested on: U251 CNS
MALME-3M melanoma = tested on: MALME-3M melanoma
MDA-N = tested on: MDA-N
BT-549 breast = tested on: BT-549 breast
HCC-2998 colon = tested on: HCC-2998 colon
RPMI-8226 leukemia = tested on: RPMI-8226 leukemia
SN12C renal = tested on: SN12C renal
HCT-15 colon = tested on: HCT-15 colon
MDA-MB-231 breast = tested on: MDA-MB-231 breast
UACC-257 melanoma = tested on: UACC-257 melanoma
NCI-H460 lung = tested on: NCI-H460 lung
MOLT-4 leukemia = tested on: MOLT-4 leukemia
COLO 205 colon = tested on: COLO 205 colon
IGROV1 ovarian = tested on: IGROV1 ovarian
HL-60(TB) leukemia = tested on: HL-60(TB) leukemia
SK-MEL-2 melanoma = tested on: SK-MEL-2 melanoma
TK-10 renal = tested on: TK-10 renal
SNB-75 CNS = tested on: SNB-75 CNS
SR leukemia = tested on: SR leukemia

Compound	TGI (U251 CNS)	TGI (MALME-3M melanoma)	TGI (MDA-N)	TGI (BT-549 breast)	TGI (HCC-2998 colon)	TGI (RPMI-8226 leukemia)	TGI (SN12C renal)	TGI (HCT-15 colon)	TGI (MDA-MB-231 breast)	TGI (UACC-257 melanoma)	TGI (NCI-H460 lung)	TGI (MOLT-4 leukemia)	TGI (COLO 205 colon)	TGI (IGROV1 ovarian)	TGI (HL-60(TB) leukemia)	TGI (SK-MEL-2 melanoma)	TGI (TK-10 renal)	TGI (SNB-75 CNS)	TGI (SR leukemia)
CC(C)(C)OC(=O)C1=C2C=C(O)C=CC2(C)N(Cc2ccccc2)C1=N (stereo not drawn)	43.3 µM	10.9 µM	20.2 µM	4.58 µM	29.3 µM	> 27.1 µM	25.5 µM	14.9 µM	21.6 µM	18.7 µM	34.7 µM	> 32.7 µM	6.24 µM	16.6 µM	6.35 µM	33.1 µM	10.2 µM	> 56.7 µM	
COC(=O)[C@]1(c2cc3ccccc3[nH]2)CC2CN(CC(=O)N(C)OC)C1CC2(OC)OC (stereo partly drawn)	30.7 µM	> 100 µM	> 100 µM	59.8 µM	> 100 µM	39.6 µM	> 100 µM	> 100 µM	> 100 µM	> 100 µM	> 100 µM		> 100 µM	> 100 µM	39.5 µM	> 100 µM	> 100 µM	> 100 µM	
Fc1cccc(Cl)c1C1SCc2nc3cc4ccccc4cc3n21 (stereo not drawn)	> 100 µM	> 100 µM	> 100 µM	> 100 µM	> 100 µM	> 100 µM	> 100 µM	> 100 µM	> 100 µM	> 100 µM		> 100 µM	> 100 µM	> 100 µM		> 100 µM	> 100 µM		> 100 µM
CCOC(=O)/C=C/[C@H](O)[C@@H](O)/C=C/C(=O)OCC	> 100 µM	46.8 µM	> 100 µM	> 100 µM	> 100 µM	44.6 µM	85.2 µM	59.7 µM	> 100 µM	> 100 µM	43 µM	41.5 µM	> 100 µM	> 100 µM		> 100 µM	> 100 µM	> 100 µM	40 µM
O=c1[nH]nc(Cn2c3ccc(Br)cc3c3nc4ccccc4nc32)n1C1CCCCC1	> 100 µM		> 100 µM	> 100 µM	> 100 µM	77.6 µM	> 100 µM	> 100 µM	> 100 µM	> 100 µM	> 100 µM	> 100 µM	> 100 µM	> 100 µM		> 100 µM	> 100 µM	> 100 µM	> 100 µM
O=C(O)CNn1c(SCC(=O)O)nnc(/C=C/c2c(O)ccc3ccccc23)c1=O	> 100 µM	> 100 µM	> 100 µM	63.8 µM	> 100 µM	> 100 µM	> 100 µM	> 100 µM		> 100 µM	> 100 µM		> 100 µM	0.962 µM	25.9 µM	> 100 µM			60 µM
O=C(N/N=C/c1ccccc1O)c1ccccc1Nc1ccccc1C(=O)N/N=C/c1ccccc1O	> 100 µM	6.09 µM	> 100 µM	> 100 µM	> 100 µM			> 100 µM	> 100 µM	> 100 µM	> 100 µM		> 100 µM	> 100 µM	> 100 µM	> 100 µM	> 100 µM	> 100 µM	
Cc1nn2c(C(=O)N/N=C/c3ccc([N+](=O)[O-])cc3)c(C)nc2s1	53.5 µM	> 100 µM	> 100 µM	> 100 µM	> 100 µM		> 100 µM	> 100 µM	49.4 µM	> 100 µM	> 100 µM	> 100 µM	> 100 µM	> 100 µM	> 100 µM		> 100 µM	> 100 µM	
CN(C)CCn1c(=O)c2ccc3c4c(nn3CCN(C)C)c3cc([N+](=O)[O-])ccc3n(c1=O)c24	2.94 µM	1.12 µM	0.243 µM	3.34 µM	0.207 µM	0.397 µM	0.429 µM	0.745 µM	0.491 µM	1.99 µM	0.176 µM		0.297 µM	4.5 µM	0.638 µM	0.31 µM	2.01 µM		
NC(=O)C(=O)C(c1ccccc1)S(=O)(=O)Cc1ccccc1 (stereo not drawn)	> 100 µM		> 100 µM	> 100 µM	> 100 µM	> 100 µM	> 100 µM	> 100 µM	> 100 µM	> 100 µM	> 100 µM	> 100 µM	> 100 µM	> 100 µM		> 100 µM	> 100 µM	> 100 µM	> 100 µM
CC(C)(C)OC/C=C1\C(=O)O[C@H]2C[C@@H](O[Si](C)(C)C(C)(C)C)C[C@@H]12	> 100 µM	> 100 µM	> 100 µM	> 100 µM	> 100 µM	> 100 µM	> 100 µM	> 100 µM	> 100 µM	> 100 µM	> 100 µM	> 100 µM	> 100 µM	> 100 µM		> 100 µM	> 100 µM	> 100 µM	> 100 µM
CC(C)C(C/C=C1/CC(CO)(COC(=O)c2ccccc2)OC1=O)C(C)C (stereo not drawn)	36.1 µM	25.1 µM	31.2 µM	33.2 µM	40.8 µM		29 µM	36.9 µM	32.8 µM	62.4 µM	45.7 µM	47 µM	17.4 µM	38.2 µM		> 100 µM	32.3 µM	20.3 µM	> 100 µM
O=[N+]([O-])C(=C1Nc2ccccc2N1)/C(Cl)=C(/Cl)N1CCOCC1	> 100 µM	> 100 µM	> 100 µM	> 100 µM	> 100 µM	> 100 µM	> 100 µM	> 100 µM	> 100 µM	> 100 µM	> 100 µM	> 100 µM	> 100 µM			> 100 µM		> 100 µM	
Oc1ccccc1C1=NOC(c2ccc(C(F)(F)F)cc2)C1 (stereo not drawn)	> 50 µM	> 50 µM	> 50 µM	> 50 µM	> 50 µM	> 50 µM	> 50 µM	> 50 µM	> 50 µM	> 50 µM	> 50 µM	> 50 µM	> 50 µM	> 33.3 µM	> 50 µM	> 50 µM	> 16.2 µM	> 50 µM	
